Experimental data: patent US6767902B2, “Androgen as a male contraceptive and non-contraceptive androgen replacement” (The Population Council, Inc., priority 1997, dated 2004)

Legend:
prostate = conditions: in the potency ranges contemplated; cited from earlier work
[1] = test system: serum levels of LH, FSH, T and DHT; experiment: MENT Ac subcutaneous implants in healthy men for 28 days: serum hormone levels; format: in vivo, human
Experimental: (§1) Forty-five healthy, normal male subjects were selected for a study of the contraceptive effect of androgens alone. Subjects were treated over the course of four weeks, during which extensive blood work-ups were undertaken. The subjects were divided into three groups of 15 each. Group A received one subcutaneous implant, Group B received two subcutaneous implants and Group C received four subcutaneous implants. Implants remained in place for 28 consecutive days.
(§2) The total duration of the study was 42 days. Each man included in the study was assessed through a medical history and a complete general physical examination and a determination of general eligibility. Subjects were tested on a weekly basis for six consecutive weeks at approximately the same time each day. Day 1 was the date of the subdermal implant's insertion and Day 29 was removal. On the last day of the study, Day 43, subjects received a general physical examination, as well as an additional battery of blood tests. Blood samples for hormone immuno assays MENT (7 mL), FSH, LH and testosterone (5 mL for the last 3 hormones together) were obtained during pre-admission and each subsequent visit.
FIG. 2 illustrates the effect of MENT Ac implants on mean serum LH concentration. […] By suppressing LH, testosterone production is suppressed. […] A reduction in testosterone reduces or eliminates spermatogenesis. However, because androgen is being supplied, sexual function is generally maintained.
Finally, FIG. 3 illustrates the effect of MENT Ac implants on the mean serum FSH concentration. […] FSH stimulates germ cell production. If germ cells are present, but testosterone is insufficient, then spermatogenesis cannot take place and sperm cells will not be produced. Similarly, if FSH concentrations are low enough, germ cells will not be produced and spermatogenesis cannot take place irrespective of testosterone levels.

[2] = MENT Ac subcutaneous implants in healthy men: serum MENT levels and in vivo release; design: species or system human
Experimental: as §1, §2

[3] = test system: serum levels of LH, FSH and T; experiment: Multiple-dose daily i.m. injection of MENT in normal men for six days: serum hormone levels; format: in vivo, human
Experimental: Two multiple injection studies were undertaken in which groups of four normal, non-sterile men each received 1, 2 or 4 mg of MENT daily by intramuscular (i.m.) injection for six consecutive days (24 men, 12 in each study). The formulation in each injection included the appropriate amount of MENT suspended in 27.6 mg/mL of polyethylene glycol, 1.8 mg/mL of Tween 80 and 8.3 mg/mL of sodium chloride. Serum FSH, LH and testosterone levels were measured daily. The results are illustrated in FIGS. 7-12.
The values returned to the normal range by day 15-30 of the study period. With reference to FIG. 8 (open boxes connected by a line=1 mg, closed boxes connected by a line=2 mg, open circles connected by a line=4 mg) a dose of at least 4 mg was required to obtain serum levels of FSH below two international units (“IU”) per liter by day 6. This must be compared with the results obtained by the use of 1000 μg (1 mg) of the same androgen delivered by a subcutaneous implant as illustrated in FIGS. 2-4 and Example 1. Therefore, considerably more of this same androgen was required to obtain certain depressed serum levels of LH, FSH and testosterone in males when the androgen was administered through a once-a-day intramuscular injection when compared to continuous release implants. […] FIG. 7 illustrates the level of serum LH achieved in the first study and FIG. 9 illustrates the level of serum testosterone achieved. FIGS. 10-12 illustrate the levels of LH, FSH and testosterone realized by the same protocol at the second testing site. Both the data and the overall trends of both studies are largely the same.

[4] = single implant, about 500 micrograms MENT Ac per day, about 28 days
[5] = two implants simultaneously, about 1,000 micrograms MENT Ac per day

SMILES: C[C@]12CC[C@H]3[C@@H](CCC4=CC(=O)CC[C@@]43C)[C@@H]1CC[C@@H]2O [testosterone, reference compound]
- stimulation of the prostate (prostate): can overstimulate the prostate

SMILES: CC(=O)O[C@H]1CC[C@H]2[C@H]3[C@H](CC[C@]12C)[C@H]1CCC(=O)C=C1C[C@H]3C [MENT Ac]
- mean serum LH concentration ([1]; 2 or 4 implants (500 micrograms each), day 8): nearly undetectable levels of LH
- mean serum LH concentration ([1]; first post implant visit on day 8, one, two or four implants): dropped significantly
- levels of LH, FSH and testosterone ([1]; four 500 microgram per day implants simultaneously): very comparable to those obtained at the 1000 microgram per day level
- mean serum FSH concentration ([1]; one, two or four implants): significant impact on the serum FSH concentration
- mean serum T concentration (testosterone) ([1]; single implant): much reduced levels of testosterone
- daily blood levels of FSH (average) [1, 4]: above 2 IU/L
- daily blood levels of LH (average) [1, 4]: below 2 IU/L
- daily blood levels of testosterone [1, 4]: about 5.0 nmol/liter
- daily blood levels of FSH (average) [1, 5]: less than 0.5 IU/L
- daily blood levels of LH (average) [1, 5]: less than 0.5 IU/L
- daily blood levels of testosterone [1, 5]: about 1.0 nmol/liter
- mean serum T concentration (testosterone) ([1]; two or four implants): very low testosterone levels
- release rate ([2]; 4.4 cm implant, drug load 112±4 mg MENT Ac, based on an in vivo study): approximately 500 micrograms per implant per day
- bioavailability from implants ([2]; certain subcutaneous implants, MENT Ac compared with MENT): superior in terms of bioavailability
- hydrolysis to MENT ([2]; in vivo): readily hydrolyzed to MENT

SMILES: C[C@@H]1CC2=CC(=O)CC[C@@H]2[C@H]2CC[C@]3(C)[C@@H](O)CC[C@H]3[C@@H]21 [MENT, 7α-methyl-19-nortestosterone]
- levels of the metabolite DHT ([1]; MENT Ac implants, FIG. 5): actually decreased
- result in terms of testosterone (contraceptive adequacy) ([3]; 1 mg MENT by i.m. injection once a day): inadequate for contraceptive purposes
- contraceptive adequacy from serum testosterone (FIGS. 9 and 12) ([3]; 4 mg MENT by once-a-day i.m. injection): sufficient to ensure that some level of effective contraception is obtained
- serum gonadotropins and testosterone levels ([3]; 1, 2 or 4 mg MENT daily i.m. for six days, both studies): gradual decrease
- time at which serum gonadotropins and testosterone reached their lowest levels ([3]; 1, 2 or 4 mg MENT daily i.m., end of treatment): six
- study day by which values returned to the normal range ([3]; after 1, 2 or 4 mg MENT daily i.m. for six days): 15 to 30 days
- dose required to obtain serum levels of FSH below two IU per liter by day 6 ([3]; daily i.m. injection, first study, FIG. 8): at least 4 mg
- stimulation of the prostate (prostate): stimulates the prostate to a much lower degree
